Data as given in patent US10420339B2, “Aqueous fungicidal composition and use thereof for combating harmful micro organisms” (BASF SE, priority 2004, dated 2019).

Tests used:
Poria placenta FPRL 280 = test: Bravery test (closely based on EN 113) on impregnated wood test specimens, preventive effect against wood-destroying fungi; type: cell-based; conditions: test fungus PP, Pinus spp. (southern yellow pine) specimens 40x15x4 mm, loss in weight after 6 weeks, <3% by weight = satisfactory; for Limits of the effectiveness, with leaching (EN 84): with leaching according to EN 84
Description: (§1) The limits of the effectiveness of the compositions according to the invention with regard to wood-destroying basidiomycetes were determined on wood test specimens of Pinus spp. (southern yellow pine) with the dimensions 40×15×4 mm. The test method on comminuted wood test specimens, known as the Bravery test, is closely based on EN 113 and is used to determine the preventive effect of wood preservatives against wood-destroying fungi (see in this connection A. F. Bravery, Intern. Res. Group Wood Pres., Doc. No. IRG/WP/2113, 5S., Stockholm, 1978). The wood test specimens impregnated with the composition according to the invention were tested without or with the constraint of leaching according to EN 84. […] Coniophora puteana BAM Ebw. 15 and Poria placenta FPRL 280 were used as test fungi. The destruction of the wood caused by fungal infection was registered by the loss in weight of the test woods, which was determined after 6 weeks. […] The concentration limit of the effectiveness is given in two concentrations. […] The limits of the effectiveness are represented in table 4. For comparison, the values determined for a solution of the active substance in acetone are given.

[1] = system: Coniophora puteana BAM Ebw. 15; test: as above; type: cell-based; conditions: test fungus CP, Pinus spp. (southern yellow pine) specimens 40x15x4 mm, loss in weight after 6 weeks, <3% by weight = satisfactory; for Limits of the effectiveness, with leaching (EN 84): with leaching according to EN 84
Description: as §1

SMILES | Limits of the effectiveness, with leaching (EN 84) (Poria placenta FPRL 280) | Limits of the effectiveness, without leaching (Poria placenta FPRL 280) | Limits of the effectiveness, with leaching (EN 84) [1] | Limits of the effectiveness, without leaching [1]
Fc1ccc([C@]2(Cn3cncn3)O[C@H]2c2ccccc2Cl)cc1 (racemic) [Solution of epoxiconazole, epoxiconazole] | 0.11-0.18 kg/m^3 | <0.19 kg/m^3 | 0.11-0.16 kg/m^3 | <0.19 kg/m^3
CC(C)(C)C(O)(CCc1ccc(Cl)cc1)Cn1cncn1 (centres unmarked) [Solution of tebuconazole, tebuconazole] | 0.095-0.152 kg/m^3 | 0.102-0.153 kg/m^3 | <0.054 kg/m^3 | <0.052 kg/m^3
